Reference: patent US10221163B2 (priority 2015, dated 2019)
Where two headings read alike, the source gives them in different places.

Columns and labels:
[1] = target: VIM-1 (Pseudomonas aeruginosa (strain ATCC 15692 / DSM 22644 / CIP 104116 / JCM 14847 / LMG 12228 / 1C / PRS 101 / PAO1), UniProt A0A0F7KYQ8); test: biochemical; details: CCF2-FA substrate, 30 pM enzyme, 2 hours at 25° C.
Description: Enzyme Activity: Determination of IC50
The Class B enzyme activities were measured in the presence of the test inhibitor in a fluorescence assay against a commercially available substrate consisting of a cephalosporin core linking 7-hydroxycoumarin to fluorescein (CCF2-FA). […] In a 384-well microplate, the test inhibitor was incubated with the metallo-β-lactamase enzyme and the substrate for 2 hours at 25° C. […] The IC50 value was determined from semi-logarithmic plots of enzyme inhibition versus inhibitor concentration, with a curve generated using a 4-parameter fit.

[2] = tested on: Escherichia coli expressing NDM-1 (CLB30005, CLB30016); format: cell-based; details: with imipenem 1 μg/ml; for Escherichia coli expressing NDM-1 (CLB30016) MITC95: 95% inhibition of bacterial growth; for Escherichia coli MITC95: NDM-1 strain, 95% inhibition of growth
Method in brief: (§1)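 Clinical isolates (E. coli NDM-1, S. marcescens IMP-1, K. pneumoniae VIM-1) were diluted 1:100 from saline suspension into 1.1×CAMHB and exposed to test compound with imipenem at 1 μg/ml. Plates were incubated at 35° C for 22 hours to 24 hours, and growth was read by absorbance.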

[3] = tested on: Klebsiella pneumoniae expressing VIM-1 (IHMA599644); format: cell-based; details: for Klebsiella pneumoniae expressing VIM-1 (IHMA599644) MITC95: with imipenem 1 μg/ml, 95% inhibition of bacterial growth; for Klebsiella pneumoniae MITC95: VIM-1 strain IHMA599644, with imipenem 1 μg/ml, 95% inhibition of growth
Method in brief: as §1

[4] = tested on: Serratia marcescens expressing IMP-1 (CL5741); format: cell-based; details: for Serratia marcescens expressing IMP-1 (CL5741) MITC95: with imipenem 1 μg/ml, 95% inhibition of bacterial growth; for Serratia marcescens MITC95: IMP-1 strain CL5741, with imipenem 1 μg/ml, 95% inhibition of growth
Method in brief: as §1

[5] = tested on: Pseudomonas aeruginosa efflux+ (MB9798), IMP-1; format: cell-based; parameters: Concentration of metallo-β-lactamase inhibitor which restores susceptibility of efflux + (MB9798) strain to imipenem: unit not given here; details: C, D serine β-lactamase inhibitor closely related to relebactam; for P. aeruginosa expressing IMP-1, efflux + (MB9798) MITC95: concentration restoring susceptibility to imipenem at 2 μg/mL in the presence of a class A; for Concentration of metallo-β-lactamase inhibitor which restores susceptibility of efflux + (MB9798) strain to imipenem: imipenem at 2 μg/mL, in the presence of a class A
Method in brief: (§2)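 PAO1 pair, broth microdilution; fixed β-lactam (imipenem/ceftazidime) at ~CLSI breakpoint + fixed class A/C BLI for AmpC; serial MBLi titration; endpoint = MBLi conc. restoring susceptibility; MB9798:MB9799 ratio = efflux liability.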

[6] = tested on: Pseudomonas aeruginosa efflux− (MB9799), IMP-1; format: cell-based; details: C, D serine β-lactamase inhibitor closely related to relebactam; for P. aeruginosa expressing IMP-1, efflux − (MB9799) MITC95: concentration restoring susceptibility to imipenem at 2 μg/mL in the presence of a class A; for Concentration of metallo-β-lactamase inhibitor which restores susceptibility of efflux − (MB9799) strain to imipenem: imipenem at 2 μg/mL, in the presence of a class A
Method in brief: as §2

[7] = tested on: Pseudomonas aeruginosa MB9798 vs MB9799
Text: The strain background was Pseudomonas aeruginosa PAO1.
The strain set was then used as a pair to determine the effect of metallo-β-lactamase inhibitors of Formula I on the MIC of imipenem and/or ceftazidime. A fixed concentration of antibiotic was included in standard microbroth MIC tests, usually at the CLSI (Clinical and Laboratory Standards Institute) breakpoint concentration. A fixed amount of a class A/C beta-lactamase inhibitor was also included to inhibit the resident Pseudomonas AmpC enzyme. A serial titration of the metallo-β-lactamase inhibitor was included and the concentration of metallo-β-lactamase inhibitor which restores susceptibility of the strain to the included antibiotic was recorded. That concentration of metallo-β-lactamase inhibitor was then compared between the two strains to determine the fold difference between the efflux+ (MB9798) and efflux− (MB9799) strains. This was taken as an indication of the extent to which the MBLi is subject to efflux.

[8] = target: IMP-1 (Serratia marcescens, UniProt P52699); test: biochemical; format: biochemical; details: fluorescence assay, CCF2-FA substrate, 2 pM enzyme, 2 hours at 25° C.; read-out: IMP-1 IC50
Method in brief: (§3)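 IC50 values derive from 4-parameter fits of percent inhibition against inhibitor concentration on semi-log axes. Activity was monitored by fluorescence with the CCF2-FA substrate after a 2-hour, 25° C incubation of compound, enzyme and substrate.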

[9] = target: NDM-1 (Klebsiella pneumoniae, UniProt C7C422); test: biochemical; format: biochemical; details: fluorescence assay, CCF2-FA substrate, 1 pM enzyme, 2 hours at 25° C.; read-out: NDM-1 IC50
Method in brief: as §3

[10] = fluorescence assay, read-out: VIM-1 IC50
[11] = ratio MITC95 PA_9798/MITC95 PA_9799
[12] = fold difference between efflux+ (MB9798) and efflux− (MB9799) strains, imipenem at 2 μg/mL

Chain of IMP-1 (P52699 whole entry, looked up, species assumed): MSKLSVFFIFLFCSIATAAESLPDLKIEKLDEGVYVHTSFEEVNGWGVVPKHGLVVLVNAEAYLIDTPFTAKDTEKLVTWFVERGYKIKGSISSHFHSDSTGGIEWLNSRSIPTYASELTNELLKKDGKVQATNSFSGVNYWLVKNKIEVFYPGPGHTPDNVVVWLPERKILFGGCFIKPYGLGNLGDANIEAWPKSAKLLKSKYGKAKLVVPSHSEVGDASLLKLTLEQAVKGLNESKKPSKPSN
Chain of NDM-1 (C7C422 whole entry, looked up, species assumed): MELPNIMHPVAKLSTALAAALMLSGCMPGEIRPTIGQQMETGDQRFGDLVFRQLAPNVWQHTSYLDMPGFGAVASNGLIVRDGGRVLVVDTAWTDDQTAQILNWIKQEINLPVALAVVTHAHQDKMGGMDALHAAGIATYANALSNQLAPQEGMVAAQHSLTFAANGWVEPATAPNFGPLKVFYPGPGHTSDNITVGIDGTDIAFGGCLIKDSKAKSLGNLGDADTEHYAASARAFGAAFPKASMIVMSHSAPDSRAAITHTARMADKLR

SMILES	IC50 [1, 10] [nM]	Escherichia coli expressing NDM-1 (CLB30016) MITC95 [2] [µM]	Klebsiella pneumoniae expressing VIM-1 (IHMA599644) MITC95 [3] [µM]	Serratia marcescens expressing IMP-1 (CL5741) MITC95 [4] [µM]	P. aeruginosa expressing IMP-1, efflux + (MB9798) MITC95 [5] [µM]	P. aeruginosa expressing IMP-1, efflux − (MB9799) MITC95 [6] [µM]	Efflux ratio [7, 11]	Escherichia coli MITC95 [2] [µM]	Klebsiella pneumoniae MITC95 [3] [µM]	Serratia marcescens MITC95 [4] [µM]	Concentration of metallo-β-lactamase inhibitor which restores susceptibility of efflux + (MB9798) strain to imipenem [5]	Concentration of metallo-β-lactamase inhibitor which restores susceptibility of efflux − (MB9799) strain to imipenem [6]	Efflux ratio [7, 12]	IC50 [8] [nM]	IC50 [9] [nM]	IC50 ([1]; VIM-1 IC50, fluorescence assay) [nM]
NCCNS(=O)(=O)c1ccc(-c2cccc3oc(N)nc23)c(-c2nn[nH]n2)c1S(N)(=O)=O [Example 11, 4-(2-aminobenzo[d]oxazol-4-yl)-N^1-(2-aminoethyl)-3-(2H-tetrazol-5-yl)benzene-1,2-disulfonamide]	0.0502	0.7813	1.563	0.7813	0.3906	0.3906	1.00	–	–	–	–	–	–	–	–	–
CNc1nc2c(-c3ccc(S(=O)(=O)NCCN)c(S(N)(=O)=O)c3-c3nn[nH]n3)cccc2[nH]1 [Example 467, N1-(2-aminoethyl)-4-(2-(methylamino)-1H-benzo[d]imidazol-4-yl)-3-(2H-tetrazol-5-yl)benzene-1,2-disulfonamide]	0.12	–	–	–	–	–	–	0.7813	1.563	0.7813	0.3906	0.7813	0.50	–	–	–
C[C@H](CN)NS(=O)(=O)c1ccc(-c2cccnc2N)c(-c2nn[nH]n2)c1S(N)(=O)=O [Example 212, (R)-N1-(1-amino-propan-2-yl)-4-(2-aminopyridin-3-yl)-3-(2H-tetrazol-5-yl)benzene-1,2-disulfonamide]	0.154	0.3906	1.563	0.7813	1.563	1.563	1.00	–	–	–	–	–	–	–	–	–
C[N+]1(C)CC[C@@H](NS(=O)(=O)c2ccc(-c3cccc4[nH]c(N)nc34)c(-c3nn[nH]n3)c2S(N)(=O)=O)C1.[Cl-] [Example 233, (R)-3-((4-(2-amino-1H-benzo[d]imidazol-4-yl)-2-sulfamoyl-3-(2H-tetrazol-5-yl)phenyl)sulfonamido)-1,1-dimethylpyrrolidin-1-ium chloride]	–	0.3906	1.563	0.3906	1.563	1.563	1.00	–	–	–	–	–	–	0.305	0.0225	–
NCc1sc(N)nc1-c1cccc(-c2ccc(S(=O)(=O)N[C@@H]3CCNC3)c(S(N)(=O)=O)c2-c2nnn[nH]2)c1 [Example 432]	–	–	–	–	–	–	–	0.7813	1.563	0.7813	0.7813	0.7813	1.00	–	–	0.387
NCCNC(=O)c1cc(Cl)cc(-c2ccc(S(=O)(=O)N[C@@H]3CCNC3)c(S(N)(=O)=O)c2-c2nn[nH]n2)c1N [Example 450]	0.276	–	–	–	–	–	–	1.563	1.563	1.563	1.563	0.7813	2.00	–	–	–
Nc1nc2c(-c3ccc(S(=O)(=O)N[C@@H](N)c4ccccn4)c(S(N)(=O)=O)c3-c3nnn[nH]3)cccc2s1.O=C(O)C(F)(F)F [Example 99, (R)-(4-(2-aminobenzo[d]thiazol-4-yl)-2-sulfamoyl-3-(1H-tetrazol-5-yl)phenylsulfonamido)(pyridin-2-yl)methanaminium 2,2,2-trifluoroacetate]	0.499	12.5	25	6.25	25	3.125	8.00	–	–	–	–	–	–	–	–	–
